Assay results as given in patent US8192962B2, “Processes for detecting toxic substances” (Daikin Industries, Ltd., priority 2001, dated 2012).

Test system: Genes belonging to other category
Experiment: DNA chip mRNA expression in yeast, genes belonging to other category (Table 9)
Format: cell-based, Saccharomyces cerevisiae S288C
Experimental: Yeast (Saccharomyces cerevisiae S288C (α SUC2mal mel gap2 CUP1)) were incubated at 25° C. on YPD medium (yeast extract 1%, polypepton 2%, glucose 2%). One of toxic chemical substances was added to the cells at logarithmic growth phase, and the cells were further incubated for two hours. Cells were cultured without any chemical substance in the same condition, and were used as control. Concentrations of the chemical substances were defined to inhibit the growth of the yeast but not lead to death.
After completion of the incubation, the culture was centrifuged to collect the cells. To the cells, sodium acetate buffer (50 mM sodium acetate, 10 mM EDTA, 1% SDS) was added, and the mixture was shaken at 65° C. for five minutes, followed by returning to room temperature, and obtaining the supernatant, of which the procedures were repeated two times. To the supernatant, ½ amount of a solution of phenol/chloroform was added, and the mixture was centrifuged to give a supernatant, which was added with an equal amount of chloroform, and the mixture was centrifuged to give a supernatant. To the supernatant, an equal amount of isopropanol containing 0.3 M sodium acetate was added, and the mixture was allowed to stand at room temperature for 30 minutes, after which the mixture was centrifuged to give a sediment of the whole RNAs. Seventy % ethanol was added to the sediment, and the mixture was again centrifuged to give a sediment, which was then dried and dissolved in water. mRNA was isolated from the whole RNAs as followings. In view of the fact that a poly A chain is attached to the 3′ terminus of mRNA, a polynucleotide having a poly T structure which was immobilized on the surface of latex beads was used to trap the mRNA, and then the mRNA was washed and eluted with spine column (Oligotex-dT30<Super>mRNA Purification Kit, Takara). Reverse transcription of the mRNA was conducted with a reverse transcriptase (Super Script II Reverse Transcriptase; catalogue No. 18064-014, GibcoBRL) using fluorescence-labeled nucleotides to give cDNAs that were introduced with Cy3-dUTP or Cy5-dUTP during the reverse transcription.
The labeled cDNAs were dissolved in TE buffer (10mM Tris-HCl/1 mM EDTA, pH8.0), and the solution was dropped on the DNA chip containing the whole genes of yeast (DNA Chip Research Inc. Japan) so that the cDNAs were hybridized on the DNA chip at 65° C. for over 12 hours. The fluoresces intensity of the DNA chip was read with a scanner, and the ratio relative to the fluorescence intensity resulting from the absence of chemical substance was estimated as the following, which is shown in Tables 1 to 9: […]

COc1cc(CNC(=O)CCCCC=CC(C)C)ccc1O [(12), 8-methyl-N-vanillyl-6-nonenamide]
The level of expressed mRNA in the presence of chemical substance/The level of expressed mRNA in the absence of chemical substance (yeast gene YAR010C): 1.0 | The level of expressed mRNA in the presence of chemical substance/The level of expressed mRNA in the absence of chemical substance (yeast gene YBL005W-A): 1.6 | The level of expressed mRNA in the presence of chemical substance/The level of expressed mRNA in the absence of chemical substance (yeast gene YBL041W): 1.6 | The level of expressed mRNA in the presence of chemical substance/The level of expressed mRNA in the absence of chemical substance (yeast gene YBL043W): 0.9 | The level of expressed mRNA in the presence of chemical substance/The level of expressed mRNA in the absence of chemical substance (yeast gene YBL078C): 3.1 | The level of expressed mRNA in the presence of chemical substance/The level of expressed mRNA in the absence of chemical substance (yeast gene YBL102W): 0.9 | The level of expressed mRNA in the presence of chemical substance/The level of expressed mRNA in the absence of chemical substance (yeast gene YBR212W): 0.9 | The level of expressed mRNA in the presence of chemical substance/The level of expressed mRNA in the absence of chemical substance (yeast gene YBR214W): 1.2 | The level of expressed mRNA in the presence of chemical substance/The level of expressed mRNA in the absence of chemical substance (yeast gene YCL020W): 1.5 | The level of expressed mRNA in the presence of chemical substance/The level of expressed mRNA in the absence of chemical substance (yeast gene YCL027W): 0.8 | The level of expressed mRNA in the presence of chemical substance/The level of expressed mRNA in the absence of chemical substance (yeast gene YCL067C): 1.0 | The level of expressed mRNA in the presence of chemical substance/The level of expressed mRNA in the absence of chemical substance (yeast gene YCR004C): 0.8 | The level of expressed mRNA in the presence of chemical substance/The level of expressed mRNA in the absence of chemical substance (yeast gene YCR067C): 0.9 | The level of expressed mRNA in the presence of chemical substance/The level of expressed mRNA in the absence of chemical substance (yeast gene YCR071C): 1.1 | The level of expressed mRNA in the presence of chemical substance/The level of expressed mRNA in the absence of chemical substance (yeast gene YCR088W): 1.3 | The level of expressed mRNA in the presence of chemical substance/The level of expressed mRNA in the absence of chemical substance (yeast gene YCR096C): 1.0 | The level of expressed mRNA in the presence of chemical substance/The level of expressed mRNA in the absence of chemical substance (yeast gene YDL008W): 1.2 | The level of expressed mRNA in the presence of chemical substance/The level of expressed mRNA in the absence of chemical substance (yeast gene YDL119C): 0.9 | The level of expressed mRNA in the presence of chemical substance/The level of expressed mRNA in the absence of chemical substance (yeast gene YDL197C): 0.8 | The level of expressed mRNA in the presence of chemical substance/The level of expressed mRNA in the absence of chemical substance (yeast gene YDL238C): 0.9 | The level of expressed mRNA in the presence of chemical substance/The level of expressed mRNA in the absence of chemical substance (yeast gene YDR055W): 1.4 | The level of expressed mRNA in the presence of chemical substance/The level of expressed mRNA in the absence of chemical substance (yeast gene YDR084C): 0.7 | The level of expressed mRNA in the presence of chemical substance/The level of expressed mRNA in the absence of chemical substance (yeast gene YDR085C): 1.6 | The level of expressed mRNA in the presence of chemical substance/The level of expressed mRNA in the absence of chemical substance (yeast gene YDR104C): 1.1 | The level of expressed mRNA in the presence of chemical substance/The level of expressed mRNA in the absence of chemical substance (yeast gene YDR115W): 0.9 | The level of expressed mRNA in the presence of chemical substance/The level of expressed mRNA in the absence of chemical substance (yeast gene YDR169C): 0.9 | The level of expressed mRNA in the presence of chemical substance/The level of expressed mRNA in the absence of chemical substance (yeast gene YDR188W): 0.9 | The level of expressed mRNA in the presence of chemical substance/The level of expressed mRNA in the absence of chemical substance (yeast gene YDR212W): 0.8 | The level of expressed mRNA in the presence of chemical substance/The level of expressed mRNA in the absence of chemical substance (yeast gene YDR259C): 1.0 | The level of expressed mRNA in the presence of chemical substance/The level of expressed mRNA in the absence of chemical substance (yeast gene YDR315C): 0.6 | The level of expressed mRNA in the presence of chemical substance/The level of expressed mRNA in the absence of chemical substance (yeast gene YDR329C): 0.8 | The level of expressed mRNA in the presence of chemical substance/The level of expressed mRNA in the absence of chemical substance (yeast gene YDR358W): 1.1 | The level of expressed mRNA in the presence of chemical substance/The level of expressed mRNA in the absence of chemical substance (yeast gene YDR378C): 0.9 | The level of expressed mRNA in the presence of chemical substance/The level of expressed mRNA in the absence of chemical substance (yeast gene YDR388W): 0.8 | The level of expressed mRNA in the presence of chemical substance/The level of expressed mRNA in the absence of chemical substance (yeast gene YDR403W): 1.0 | The level of expressed mRNA in the presence of chemical substance/The level of expressed mRNA in the absence of chemical substance (yeast gene YDR432W): 0.7 | The level of expressed mRNA in the presence of chemical substance/The level of expressed mRNA in the absence of chemical substance (yeast gene YDR481C): 0.9 | The level of expressed mRNA in the presence of chemical substance/The level of expressed mRNA in the absence of chemical substance (yeast gene YDR510W): 1.4 | The level of expressed mRNA in the presence of chemical substance/The level of expressed mRNA in the absence of chemical substance (yeast gene YDR515W): 0.8 | The level of expressed mRNA in the presence of chemical substance/The level of expressed mRNA in the absence of chemical substance (yeast gene YEL005C): 0.8 | The level of expressed mRNA in the presence of chemical substance/The level of expressed mRNA in the absence of chemical substance (yeast gene YEL042W): 1.0
